Source: patent US20040198731A1, “Aminoalkyl-substituted aromatic bicyclic compounds, methods for their preparation and their use as pharmaceuticals” (Aventis Pharma Deutschland GmbH, priority 2001, published 2004)

Tests used:
female NMRI mice = experiment: Anorectic action: cumulative milk consumption after oral administration; format: in vivo; conditions: for cumulative milk consumption by treated animals: feed removed 17 h, monitored for 7 hours, N=5; for Reduction in cumulative milk consumption as % of the control: versus vehicle-treated control animals
Procedure: The anorectic action was tested on female NMRI mice. After removal of feed for 17 hours, the preparation to be tested was administered by gavage. The animals were housed singly and, with free access to drinking water, they were offered evaporated milk 30 minutes after administration of the preparation. The consumption of evaporated milk was determined and the general behavior of the animals were monitored every half an hour for 7 hours. The measured milk consumption was compared to that of vehicle-treated control animals.

human MCH receptor = target: T1, human MCH receptor (Homo sapiens, UniProt Q99705); experiment: Functional measurement of cellular calcium flow (FLIPR) in recombinant HEK293 cells expressing human MCH receptor; format: cell-based; conditions: cellular assay, calcium flow after addition of agonist (MCH), HEK293 (PEAK Stable Cells) expressing human MCH receptor
T1 construct: expressed in transfected cells
T1 sequence (Q99705 whole entry): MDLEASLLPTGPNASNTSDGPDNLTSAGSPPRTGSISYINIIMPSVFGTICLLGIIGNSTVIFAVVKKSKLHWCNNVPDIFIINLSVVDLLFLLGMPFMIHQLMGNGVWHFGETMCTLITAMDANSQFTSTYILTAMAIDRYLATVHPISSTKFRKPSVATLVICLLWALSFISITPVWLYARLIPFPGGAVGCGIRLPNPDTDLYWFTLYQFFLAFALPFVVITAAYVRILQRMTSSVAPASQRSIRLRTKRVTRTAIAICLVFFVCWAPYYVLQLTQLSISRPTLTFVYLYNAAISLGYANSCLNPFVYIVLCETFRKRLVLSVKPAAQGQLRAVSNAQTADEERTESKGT
Source text: In two simultaneously published articles in Nature (Nature, 400:261-264, 1999; Nature, 400:265-269, 1999, see enclosure), two groups separately described a highly specific receptor for melanin-concentrating hormone (MCH). MCH takes over important functions in the control of food intake. Compounds acting on the MCH receptor therefore have anorectic action and are suitable for the treatment of obesity. The test for anorectic action of the inventive compounds of formula I was therefore carried out as follows.
Functional measurements for determination of IC50
Cloning of the cDNA for human MCH receptor, preparation of a recombinant HEK293 cell line expressing human MCH receptor and functional measurements with said recombinant cell line were carried out according to the description by Audinot et al. (J. Biol. Chem., 276, 13554-13562, 2001). In contrast to the reference, however, plasmid pEAK8 from EDGE Biosystems (USA) was used for constructing the expression vector. A transformed HEK cell line named “PEAK Stable Cells” (likewise from EDGE Biosystems) served as host for transfection. The functional measurements of cellular calcium flow, after addition of agonists (MCH), in the presence of the ligand of the invention was carried out with the aid of the FLIPR instrument from Molecular Devices (USA), using the manufacturer's protocols.

Row | Structure (SMILES) | cumulative milk consumption by treated animals (female NMRI mice; oral dose 30 mg/kg by gavage) | Reduction in cumulative milk consumption as % of the control (female NMRI mice; oral dose 30 mg/kg by gavage) [%] | IC50 (human MCH receptor) [nM] | cumulative milk consumption by treated animals (female NMRI mice; oral dose 10 mg/kg by gavage) | Reduction in cumulative milk consumption as % of the control (female NMRI mice; oral dose 10 mg/kg by gavage) [%]
1 | CN(C)CCn1ccc2cc(NC(=O)Nc3ccc(Oc4ccccc4)cc3)ccc21 [Example 1, 1-[1-(2-Dimethylaminoethyl)-1H-indol-5-yl]-3-(4-phenoxyphenyl)urea] | 5/2.28 mL | 30 | 150 | – | –
2 | CN(C)CCn1cnc2cc(NC(=O)Nc3ccc(Oc4ccccc4)cc3)ccc21 [Example 4, 1-[1-(2-Dimethylaminoethyl)-1H-benzoimidazol-5-yl]-3-(4-phenoxyphenyl)urea] | – | – | 130 | 5/2.74 mL | 38
